Data published in patent US6461997B1, “Triazole sulfones having herbicidal activity” (Monsanto Technology LLC, priority 1999, dated 2002).

Test system: SOLNI (black nightshade)
Test: Pre-emergence herbicidal activity, warm season
Format: in vivo, Solanum nigrum
Settings: GR80 = lowest tested rate (300, 100, 30, 10 g/ha) with 80% or greater inhibition; approx. 14 days after treating; 30/21° C.
Protocol: (§1) Tables 5 to 8 summarize results of tests conducted as described below to determine the pre-emergence herbicidal activity, in the form of a GR80 value, of illustrative compounds of this invention. […] Compounds of the invention were typically applied at rates of 300, 100, 30, and 10 g/ha. Where herbicidal activity was evident but 80% inhibition was not achieved at the highest rate tested, an asterisk (*) is shown in the following tables.
(§2) The pre-emergence tests were conducted by the following procedure. Topsoil was sieved to pass through a 1.27 cm screen. Fertilizer was added to the topsoil and the mixture was then sterilized by heating. The topsoil mixture was placed in a pot and compacted to a depth of 1.0 to 1.25 cm from the top of the pot. Seeds of each of several monocotyledonous and dicotyledonous annual plant species were placed on top of the soil. Additional soil was subsequently placed over the seeds to level-fill the pot. A known amount of each test compound dissolved or suspended in an appropriate organic solvent was diluted with a 50:50 mix of acetone and water and applied to the surface of the soil. After treatment the plants were placed in a greenhouse where they received 0.64 cm of overhead irrigation. All subsequent watering consisted of a light overhead mist and/or subirrigation as needed for germination and growth. Tables 5 and 6 below relate to warm season plant species which were placed after pre-emergence treatment in a greenhouse with a 30/21° C. day/night temperature regime. Tables 7 and 8 below relates to cool season plant species placed after pre-emergence treatment in a greenhouse or growth chamber with an 18/13° C. day/night temperature regime.
(§3) Approximately 14 days after planting and treating, the plants were observed and herbicidal efficacy recorded as percent inhibition by comparison with untreated plants.
(§4) The plant species usually regarded as weeds which were utilized in the tests are identified in the tables below according to the following legend, in which “d” indicates a dicotyledonous species and “m” a monocotyledonous species. All monocotyledonous species included in the tests herein are grasses.

Row | SMILES | Pre-emergence activity (GR80) SOLNI [g/ha]
1 | CN(Cc1ccccc1)C(=O)n1cnc(S(=O)(=O)C(F)(F)C(F)F)n1 [Example 68] | 300

Test system: LAMPU (purple deadnettle)
Test: Pre-emergence herbicidal activity, cool season
Format: in vivo, Lamium purpureum
Settings: lowest tested rate with 80% or greater inhibition; rates 300, 100, 30, 10 g/ha; about 14 days
Protocol: as §1, §2, §3, §4

Row | SMILES | Pre-emergence activity GR80, LAMPU
2 | C=CCN(C)C(=O)n1cnc(S(=O)(=O)C(F)(F)Br)n1 [Example 41] | [empty]
3 | CN(C(=O)n1cnc(S(=O)(=O)C(F)F)n1)c1ccccc1 [Example 27] | 300 g/ha
4 | CN(Cc1ccccc1)C(=O)n1cnc(S(=O)(=O)C(F)(F)C(F)F)n1 [Example 68] | [empty]

Test system: SETFA (giant foxtail)
Test: Pre-emergence herbicidal activity, warm season
Format: in vivo, Setaria faberi
Settings: GR80 = lowest tested rate (300, 100, 30, 10 g/ha) with 80% or greater inhibition; approx. 14 days after treating; 30/21° C.
Protocol: as §1, §2, §3, §4

Row | SMILES | Pre-emergence activity (GR80) SETFA [g/ha]
5 | CN(Cc1ccccc1)C(=O)n1cnc(S(=O)(=O)C(F)(F)C(F)F)n1 [Example 68] | 300

Test system: GALAP (catchweed bedstraw)
Test: Pre-emergence herbicidal activity, cool season
Format: in vivo, Galium aparine
Settings: lowest tested rate with 80% or greater inhibition; rates 300, 100, 30, 10 g/ha; about 14 days
Protocol: as §1, §2, §3, §4

Row | SMILES | Pre-emergence activity GR80, GALAP
6 | C=CCN(C)C(=O)n1cnc(S(=O)(=O)C(F)(F)Br)n1 [Example 41] | [empty]
7 | CN(C(=O)n1cnc(S(=O)(=O)C(F)F)n1)c1ccccc1 [Example 27] | 300 g/ha
8 | CN(Cc1ccccc1)C(=O)n1cnc(S(=O)(=O)C(F)(F)C(F)F)n1 [Example 68] | 300 g/ha

Test system: SINAR (wild mustard)
Test: Pre-emergence herbicidal activity, cool season
Format: in vivo, Sinapis arvensis
Settings: lowest tested rate with 80% or greater inhibition; rates 300, 100, 30, 10 g/ha; about 14 days
Protocol: as §1, §2, §3, §4

Row | SMILES | Pre-emergence activity GR80, SINAR
9 | C=CCN(C)C(=O)n1cnc(S(=O)(=O)C(F)(F)Br)n1 [Example 41] | [empty]
10 | CN(C(=O)n1cnc(S(=O)(=O)C(F)F)n1)c1ccccc1 [Example 27] | [empty]
11 | CN(Cc1ccccc1)C(=O)n1cnc(S(=O)(=O)C(F)(F)C(F)F)n1 [Example 68] | 300 g/ha

Test system: CHEAL (common lambsquarters)
Test: Pre-emergence herbicidal activity, warm season
Format: in vivo, Chenopodium album
Settings: GR80 = lowest tested rate (300, 100, 30, 10 g/ha) with 80% or greater inhibition; approx. 14 days after treating; 30/21° C.
Protocol: as §1, §2, §3, §4

Row | SMILES | Pre-emergence activity (GR80) CHEAL [g/ha]
12 | CN(C(=O)n1cnc(S(=O)(=O)C(F)F)n1)c1ccccc1 [Example 27] | 300

Test system: VERPE (creeping speedwell)
Test: Pre-emergence herbicidal activity, cool season
Format: in vivo, Veronica persicaria
Settings: lowest tested rate with 80% or greater inhibition; rates 300, 100, 30, 10 g/ha; about 14 days
Protocol: as §1, §2, §3, §4

Row | SMILES | Pre-emergence activity GR80, VERPE
13 | C=CCN(C)C(=O)n1cnc(S(=O)(=O)C(F)(F)Br)n1 [Example 41] | 100 g/ha
14 | CN(C(=O)n1cnc(S(=O)(=O)C(F)F)n1)c1ccccc1 [Example 27] | 300 g/ha
15 | CN(Cc1ccccc1)C(=O)n1cnc(S(=O)(=O)C(F)(F)C(F)F)n1 [Example 68] | [empty]

Test system: STEME (common chickweed)
Test: Pre-emergence herbicidal activity, cool season
Format: in vivo, Stellaria media
Settings: lowest tested rate with 80% or greater inhibition; rates 300, 100, 30, 10 g/ha; about 14 days
Protocol: as §1, §2, §3, §4

Row | SMILES | Pre-emergence activity GR80, STEME
16 | C=CCN(C)C(=O)n1cnc(S(=O)(=O)C(F)(F)Br)n1 [Example 41] | [empty]
17 | CN(C(=O)n1cnc(S(=O)(=O)C(F)F)n1)c1ccccc1 [Example 27] | [empty]
18 | CN(Cc1ccccc1)C(=O)n1cnc(S(=O)(=O)C(F)(F)C(F)F)n1 [Example 68] | [empty]

Test system: PANMI (wild proso millet)
Test: Pre-emergence herbicidal activity, warm season
Format: in vivo, Panicum miliaceum
Settings: GR80 = lowest tested rate (300, 100, 30, 10 g/ha) with 80% or greater inhibition; approx. 14 days after treating; 30/21° C.
Protocol: as §1, §2, §3, §4

Row | SMILES | Pre-emergence activity (GR80) PANMI [g/ha]
19 | C=CCN(C)C(=O)n1cnc(S(=O)(=O)C(F)(F)Br)n1 [Example 41] | 300
20 | CN(C(=O)n1cnc(S(=O)(=O)C(F)F)n1)c1ccccc1 [Example 27] | 100
21 | CN(Cc1ccccc1)C(=O)n1cnc(S(=O)(=O)C(F)(F)C(F)F)n1 [Example 68] | 300

Test system: SASKR (russian thistle)
Test: Pre-emergence herbicidal activity, cool season
Format: in vivo, Salsola kali
Settings: lowest tested rate with 80% or greater inhibition; rates 300, 100, 30, 10 g/ha; about 14 days
Protocol: as §1, §2, §3, §4

Row | SMILES | Pre-emergence activity GR80, SASKR
22 | C=CCN(C)C(=O)n1cnc(S(=O)(=O)C(F)(F)Br)n1 [Example 41] | [empty]
23 | CN(C(=O)n1cnc(S(=O)(=O)C(F)F)n1)c1ccccc1 [Example 27] | 300 g/ha
24 | CN(Cc1ccccc1)C(=O)n1cnc(S(=O)(=O)C(F)(F)C(F)F)n1 [Example 68] | [empty]

Test system: ALOMY (blackgrass)
Test: Pre-emergence herbicidal activity, cool season
Format: in vivo, Alopecurus myosuroides
Settings: GR80 = lowest tested rate (300, 100, 30, 10 g/ha) with 80% or greater inhibition; approx. 14 days after treating; 18/13° C.
Protocol: as §1, §2, §3, §4

Row | SMILES | Pre-emergence activity (GR80) ALOMY [g/ha]
25 | C=CCN(C)C(=O)n1cnc(S(=O)(=O)C(F)(F)Br)n1 [Example 41] | 300
26 | CN(C(=O)n1cnc(S(=O)(=O)C(F)F)n1)c1ccccc1 [Example 27] | 300

Test system: SETVI (green foxtail)
Test: Pre-emergence herbicidal activity, cool season
Format: in vivo, Setaria viridis
Settings: GR80 = lowest tested rate (300, 100, 30, 10 g/ha) with 80% or greater inhibition; approx. 14 days after treating; 18/13° C.
Protocol: as §1, §2, §3, §4

Row | SMILES | Pre-emergence activity (GR80) SETVI [g/ha]
27 | CN(Cc1ccccc1)C(=O)n1cnc(S(=O)(=O)C(F)(F)C(F)F)n1 [Example 68] | 300

Test system: AGSST (creeping bentgrass)
Test: Pre-emergence herbicidal activity, cool season
Format: in vivo, Agrostis stolonifera
Settings: GR80 = lowest tested rate (300, 100, 30, 10 g/ha) with 80% or greater inhibition; approx. 14 days after treating; 18/13° C.
Protocol: as §1, §2, §3, §4

Row | SMILES | Pre-emergence activity (GR80) AGSST [g/ha]
28 | C=CCN(C)C(=O)n1cnc(S(=O)(=O)C(F)(F)Br)n1 [Example 41] | 30

Test system: POLCO (wild buckwheat)
Test: Pre-emergence herbicidal activity, cool season
Format: in vivo, Polygonum convolvulus
Settings: lowest tested rate with 80% or greater inhibition; rates 300, 100, 30, 10 g/ha; about 14 days
Protocol: as §1, §2, §3, §4

Row | SMILES | Pre-emergence activity GR80, POLCO
29 | C=CCN(C)C(=O)n1cnc(S(=O)(=O)C(F)(F)Br)n1 [Example 41] | [empty]
30 | CN(C(=O)n1cnc(S(=O)(=O)C(F)F)n1)c1ccccc1 [Example 27] | 30 g/ha
31 | CN(Cc1ccccc1)C(=O)n1cnc(S(=O)(=O)C(F)(F)C(F)F)n1 [Example 68] | 300 g/ha
